{"source": "patent US11951095B2", "about": "“Non-hormonal compositions and methods for male contraception” (PHARMAJOR INTERNATIONAL, priority 2018, dated 2024)", "key": {"male subjects [1]": {"system": "male subjects", "assay": "Example 3: single administration contraceptive effect, semen analysis (IR formulation)", "assay_type": "in vivo, human", "procedure": "A study is undertaken to evaluate the effectiveness of the compositions of the present invention in the treatment of male subjects. The objective of the study is to determine whether oral intake of (R)-Silodosin formulation results in a contraceptive effect.\nA total of 7 subjects, aged 18 to 40 years were enrolled in an open-label study. An initial analysis of each subject's semen, collected via masturbation after 3 days of abstinence, is performed by microscopic examination of the fresh semen. Each subject receives one single dose of 12 mg immediate release (R)-Silodosin.\nA semen analysis of each subject is conducted 24 hours after the dosing."}, "[2]": {"conditions": "cited from earlier work"}, "[3]": {"conditions": "cited from earlier work", "remark": "listed apart in the source"}, "[4]": {"conditions": "4 mg twice a day; cited from earlier work"}, "Healthy Volunteers [5]": {"system": "Healthy Volunteers", "conditions": "4 mg twice a day for 3 days; cited from earlier work"}, "male subjects [6]": {"system": "male subjects", "conditions": "in vivo; cited from earlier work"}, "healthy volunteer men": {"system": "healthy volunteer men", "conditions": "in vivo; cited from earlier work"}, "sexually active men": {"system": "sexually active men", "conditions": "in vivo; cited from earlier work"}, "[7]": {"conditions": "in vivo; cited from earlier work"}, "participants": {"system": "participants", "conditions": "cited from earlier work"}, "prostatic smooth muscle": {"system": "prostatic smooth muscle", "conditions": "cited from earlier work"}, "male": {"system": "male", "conditions": "cited from earlier work"}, "Healthy Volunteers [8]": {"system": "Healthy Volunteers", "conditions": "cited from earlier work"}, "[9]": {"conditions": "single dose 12 mg, immediate release (IR) formulation, 24 h, N = 7"}, "[10]": {"conditions": "traditional formulations, with food"}}, "note": "Counter-ions that a name gives are not always drawn."}
{"smiles": "C[C@H](Cc1cc2c(c(C(N)=O)c1)N(CCCO)CC2)NCCOc1ccccc1OCC(F)(F)F", "note": "[(R)-Silodosin, (−)-(R)-1-(3-hydroxypropyl)-5-[2-[[2-[2-(2,2,2-trifluoroethoxy)phenoxy]ethyl]amino]propyl]indoline-7-carboxamide]", "values": [{"measurement": "time for which contraception is maintained", "setting": "male subjects [1]; after a 12-mg single dose", "value": "up to 24 h"}, {"measurement": "Aspermia (subjects with effect)", "setting": "male subjects [1]; [9]", "value": "6/7"}, {"measurement": "Azoospermia (subjects with effect)", "setting": "male subjects [1]; [9]", "value": "1/7"}, {"measurement": "Total, aspermia or azoospermia (subjects with effect)", "setting": "male subjects [1]; [9]", "value": "7/7"}, {"measurement": "solubility in acetic acid", "setting": "[2]", "value": "very soluble"}, {"measurement": "solubility in alcohol", "setting": "[2]", "value": "freely soluble"}, {"measurement": "solubility in water", "setting": "[2]", "value": "very slightly soluble"}, {"measurement": "median Tmax", "setting": "[3]; CDER NDA 22-206", "value": "about 2 hours"}, {"measurement": "food effect on Cmax", "setting": "[3]; [10]", "value": "lower"}, {"measurement": "food effect on Tmax", "setting": "[3]; [10]", "value": "delayed"}, {"measurement": "ejaculatory disorder", "setting": "[4]", "value": "high incidence"}, {"measurement": "seminal emission", "setting": "Healthy Volunteers [5]", "value": "complete lack of seminal emission"}, {"measurement": "rate of discomfort upon ejaculation", "setting": "male subjects [6]", "value": 100, "unit": "%"}, {"measurement": "quality of orgasm", "setting": "healthy volunteer men", "value": "decrease"}, {"measurement": "erectile function", "setting": "sexually active men", "value": "decrease"}, {"measurement": "sexual desire", "setting": "[7]", "value": "decrease"}, {"measurement": "spermatozoa in the semen and post-analysis urine", "setting": "participants; 8 mg for 7 days, 2 hours after intake", "value": "no spermatozoa"}, {"measurement": "semen analysis after switch to placebo", "setting": "participants; Day 8 to 15 placebo, from day 2 of placebo", "value": "normal semen analysis"}, {"measurement": "unintended pregnancy", "setting": "participants; on demand 8 mg prior to intercourse, 6 months", "value": "no unintended pregnancy"}, {"measurement": "uroselectivity compared with other alpha-1 blockers, such as tamsulosin and naftopidil", "setting": "prostatic smooth muscle", "value": "greater"}]}
{"smiles": "CC(COc1ccccc1)N(CCCl)Cc1ccccc1", "note": "(centres unmarked) [phenoxybenzamine]", "values": [{"measurement": "effect following male orgasm", "setting": "male; doses up to 20 mg/day", "value": "aspermia"}, {"measurement": "reversal of ejaculation block with cessation of treatment", "setting": "male; in vivo", "value": "fully reversed"}]}
{"smiles": "CCOc1ccccc1OCCN[C@H](C)Cc1ccc(OC)c(S(N)(=O)=O)c1", "note": "[tamsulosin, (−)-(R)-5-[2-[[2-(o-Ethoxyphenoxy)ethyl]amino]propyl]-2-methoxybenzenesulfonamide, monohydrochloride]", "values": [{"measurement": "ejaculation", "setting": "Healthy Volunteers [8]; 0.8-mg dose", "value": "An ejaculation was reached"}, {"measurement": "functional sperm count", "setting": "Healthy Volunteers [8]; in vivo", "value": "significantly reduced"}, {"measurement": "side effects including discomfort on ejaculation", "setting": "Healthy Volunteers [8]; in vivo", "value": "reported by some subjects"}, {"measurement": "volume of semen", "setting": "Healthy Volunteers [8]; single dose of 0.4 or 0.8 mg, 4 to 6 hours after dosing", "value": "dose dependent decrease"}]}
